Measured values reported in the Kinase Knowledgebase extract (Sharma et al. 2016).

Target: EGFR (human) (UniProt P00533)
Sequence (P00533 whole entry, looked up): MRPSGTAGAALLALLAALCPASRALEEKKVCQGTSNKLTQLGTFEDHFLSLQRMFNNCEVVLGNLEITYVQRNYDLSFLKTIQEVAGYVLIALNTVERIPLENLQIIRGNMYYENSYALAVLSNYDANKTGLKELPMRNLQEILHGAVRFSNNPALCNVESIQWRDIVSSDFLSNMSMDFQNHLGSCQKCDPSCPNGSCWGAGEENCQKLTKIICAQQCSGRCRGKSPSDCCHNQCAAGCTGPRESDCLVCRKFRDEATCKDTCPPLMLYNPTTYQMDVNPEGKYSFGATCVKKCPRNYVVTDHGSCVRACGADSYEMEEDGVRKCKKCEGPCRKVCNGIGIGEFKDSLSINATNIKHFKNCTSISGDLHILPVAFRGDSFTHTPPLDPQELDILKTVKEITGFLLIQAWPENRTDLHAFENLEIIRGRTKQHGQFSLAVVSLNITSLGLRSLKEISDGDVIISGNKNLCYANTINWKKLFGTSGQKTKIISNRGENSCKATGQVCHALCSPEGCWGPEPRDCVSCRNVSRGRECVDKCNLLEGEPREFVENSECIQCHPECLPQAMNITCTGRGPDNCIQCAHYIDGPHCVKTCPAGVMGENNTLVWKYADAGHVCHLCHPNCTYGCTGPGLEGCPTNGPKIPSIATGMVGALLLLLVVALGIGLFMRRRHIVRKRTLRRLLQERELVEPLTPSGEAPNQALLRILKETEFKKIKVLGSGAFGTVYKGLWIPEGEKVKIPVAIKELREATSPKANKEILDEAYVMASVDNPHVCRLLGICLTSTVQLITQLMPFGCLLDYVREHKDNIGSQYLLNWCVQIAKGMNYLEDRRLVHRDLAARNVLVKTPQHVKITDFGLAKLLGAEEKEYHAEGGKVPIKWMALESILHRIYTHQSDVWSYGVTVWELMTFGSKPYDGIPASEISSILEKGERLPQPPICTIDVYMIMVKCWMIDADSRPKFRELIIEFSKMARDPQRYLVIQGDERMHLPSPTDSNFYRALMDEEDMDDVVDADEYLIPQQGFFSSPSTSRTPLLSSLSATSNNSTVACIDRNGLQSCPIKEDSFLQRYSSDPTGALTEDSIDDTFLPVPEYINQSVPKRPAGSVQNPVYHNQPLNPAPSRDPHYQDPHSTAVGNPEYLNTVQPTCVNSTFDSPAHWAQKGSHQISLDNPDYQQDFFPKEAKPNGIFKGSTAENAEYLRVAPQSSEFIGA

Compound | IC50
CN(C)CCCNc1ccc(Nc2nccc(-c3sc(N)nc3-c3cccc(NC(=O)c4cc(F)ccc4F)c3)n2)cc1F | < 100 nM
Cc1nc(-c2cccc(NC(=O)c3cccc(C(F)(F)F)c3)c2)c(-c2ccnc(Nc3ccc4c(c3)CN(C)CC4)n2)s1 | < 100 nM
NS(=O)(=O)CCc1cccc(Nc2nccc(-c3scnc3-c3cccc(NC(=O)c4c(F)cccc4F)c3)n2)c1 | < 100 nM
CCNc1nc(-c2cccc(NC(=O)c3c(F)cccc3F)c2)c(-c2ccnc(Nc3ccc(CCN4CCCC4)c(F)c3)n2)s1 | < 100 nM
COc1ccc(Nc2nccc(-c3sc(N)nc3-c3cccc(NC(=O)c4c(F)cccc4F)c3)n2)cc1N(C)C | < 100 nM
CC(=O)N1CCC(Oc2ccc(Nc3nccc(-c4sc(C)nc4-c4cccc(NC(=O)c5c(F)cccc5F)c4)n3)cc2F)CC1 | < 100 nM
CCN(CC)CCOc1cccc(Nc2nccc(-c3scnc3-c3cccc(NC(=O)c4c(F)cccc4F)c3)n2)c1 | < 100 nM
CN(C)CCOc1cccc(Nc2nccc(-c3scnc3-c3cccc(NC(=O)c4c(F)cccc4F)c3)n2)c1 | < 100 nM
COCCNc1nc(-c2cccc(NC(=O)c3c(F)cccc3F)c2)c(-c2ccnc(Nc3ccc(OCCN4CCCC4)c(Cl)c3)n2)s1 | < 100 nM
CN(C)CCCNc1ccc(Nc2nccc(-c3sc(N)nc3-c3cccc(NC(=O)c4cccn4C)c3)n2)cc1F | < 100 nM
COCCOc1ccc(Nc2nccc(-c3sc(N)nc3-c3cccc(NC(=O)c4c(F)cccc4F)c3)n2)cc1F | < 100 nM
CN(C)CCOc1ccc(Nc2nccc(-c3sc(N(C)C)nc3-c3cccc(NC(=O)c4c(F)cccc4F)c3)n2)cc1Cl | < 100 nM
Nc1nc(-c2cccc(NC(=O)c3c(F)cccc3F)c2)c(-c2ccnc(Nc3ccc4c(c3)OCC(=O)N4)n2)s1 | < 100 nM
CCNc1nc(-c2cccc(NC(=O)C3CC3)c2)c(-c2ccnc(Nc3ccc(OCCN4CCCC4)c(Cl)c3)n2)s1 | < 100 nM
CC(C)(C)c1nc(-c2cccc(NC(=O)c3c(F)cccc3F)c2)c(-c2ccnc(Nc3cccc(CN4CCCC4)c3)n2)s1 | < 100 nM
O=C(Cc1cccs1)Nc1cccc(-c2ncsc2-c2ccnc(Nc3ccc4c(c3)NC(=O)CO4)n2)c1 | < 100 nM
CN(C)CCOc1ccc(Nc2nccc(-c3sc(N)nc3-c3cc(NC(=O)c4c(F)cccc4F)ccc3F)n2)cc1Cl | < 100 nM
CN(C)CCOc1ccc(Nc2nccc(-c3sc(-c4ccc(O)cc4)nc3-c3cccc(NC(=O)c4cc(F)ccc4F)c3)n2)cc1Cl | < 100 nM
Cc1cc(Nc2nccc(-c3sc(N(C)C)nc3-c3cccc(NC(=O)c4c(F)cccc4F)c3)n2)ccc1CC1CCNCC1 | < 100 nM
Nc1nc(-c2cccc(OCc3ccccc3)c2)c(-c2ccnc(Nc3cccc(-c4cnco4)c3)n2)s1 | < 100 nM
Nc1nc(-c2cccc(NC(=O)c3cc(F)ccc3F)c2)c(-c2ccnc(Nc3ccc4c(c3)CNCC4)n2)s1 | < 100 nM
CN(C)CCOc1ccc(Nc2nccc(-c3sc(N)nc3-c3cccc(NC(=O)C4CCCCC4)c3)n2)cc1Cl | < 100 nM
CN(C)CCOc1ccc(Nc2nccc(-c3sc(N(C)C)nc3-c3cccc(NC(=O)c4c(F)cccc4F)c3)n2)cc1 | < 100 nM
Cc1nc(-c2cccc(NC(=O)c3cccnc3F)c2)c(-c2ccnc(Nc3ccc4c(c3)CN(C)CC4)n2)s1 | < 100 nM
COCCNc1nc(-c2cccc(NC(=O)c3cc(F)ccc3F)c2)c(-c2ccnc(Nc3ccc(OC)c(F)c3)n2)s1 | < 100 nM
CC(C)c1nc(-c2cccc(NC(=O)c3c(F)cccc3F)c2)c(-c2ccnc(Nc3ccc(OCCN4CCCC4)c(Cl)c3)n2)s1 | < 100 nM
COCCOc1ccc(Nc2nccc(-c3sc(N)nc3-c3cccc(NC(=O)c4cccn4C)c3)n2)cc1F | < 100 nM
CS(=O)(=O)CCN1CCN(c2ccc(Nc3nccc(-c4scnc4-c4cccc(NC(=O)c5c(F)cccc5F)c4)n3)cc2F)CC1 | < 100 nM

Compound | IC50
O=C(Nc1cccc(-c2nc(CF)sc2-c2ccnc(Nc3ccc(OCCN4CCCC4)c(F)c3)n2)c1)c1c(F)cccc1F | < 100 nM
Nc1nc(-c2cccc(NC(=O)c3c(F)cccc3F)c2)c(-c2ccnc(Nc3ccc4c(c3)NC(=O)CO4)n2)s1 | < 100 nM
CN(C)C1Cc2ccc(Nc3nccc(-c4sc(N)nc4-c4cccc(NC(=O)c5c(F)cccc5F)c4)n3)cc2C1 (stereo not given) | < 100 nM
CC(=O)Nc1nc(-c2cccc(NC(=O)c3c(F)cccc3F)c2)c(-c2ccnc(Nc3cccc(CN4CCCC4)c3)n2)s1 | < 100 nM
CN(C)CCOc1ccc(Nc2nccc(-c3sc(NCCCN4CCOCC4)nc3-c3cccc(NC(=O)c4c(F)cccc4F)c3)n2)cc1Cl | < 100 nM
CC(C)c1nc(-c2cccc(NC(=O)c3c(F)cccc3F)c2)c(-c2ccnc(Nc3cccc(OCCN(C)C)c3)n2)s1 | < 100 nM
O=C1COc2cc(Nc3nccc(-c4scnc4-c4cccc(NC(=O)c5cc(F)ccc5F)c4)n3)ccc2N1 | < 100 nM
CN(C)CCOc1ccc(Nc2nccc(-c3sc(N)nc3-c3cccc(OCc4ccccc4)c3)n2)cc1Cl | < 100 nM
CCc1nc(-c2cccc(NC(=O)c3c(F)cccc3F)c2)c(-c2ccnc(Nc3ccc(OCCN(C)C)c(F)c3)n2)s1 | < 100 nM
CCN(CC)CCOc1cccc(Nc2nccc(-c3scnc3-c3cccc(NC(=O)c4cc(F)ccc4F)c3)n2)c1 | < 100 nM
Nc1nc(-c2cccc(NC(=O)c3c(F)cccc3F)c2)c(-c2ccnc(Nc3cccc(F)c3)n2)s1 | < 100 nM
Cc1nc(-c2cccc(NC(=O)c3c(F)cccc3F)c2)c(-c2ccnc(Nc3cccc(OCCN(C)C)c3)n2)s1 | < 100 nM
COCCOc1ccc(Nc2nccc(-c3sc(N)nc3-c3cccc(NC(=O)c4cc(F)ccc4F)c3)n2)cc1F | < 100 nM
CN(C)CCOc1ccc(Nc2nccc(-c3sc(N4CCCCC4)nc3-c3cccc(NC(=O)c4c(F)cccc4F)c3)n2)cc1Cl | < 100 nM
COc1cc(Nc2nccc(-c3sc(N)nc3-c3cccc(NC(=O)c4c(F)cccc4F)c3)n2)cc(OC)c1OC | < 100 nM
CCc1nc(-c2cccc(NC(=O)c3c(F)cccc3F)c2)c(-c2ccnc(Nc3ccc(OCCN4CCCC4)c(Cl)c3)n2)s1 | < 100 nM
O=C(Nc1cccc(-c2nc(NCCCN3CCOCC3)sc2-c2ccnc(Nc3cccc(CN4CCCC4)c3)n2)c1)c1c(F)cccc1F | < 100 nM
CCN(CC)CCOc1cccc(Nc2nccc(-c3scnc3-c3cccc(NC(=O)Cc4cccs4)c3)n2)c1 | < 100 nM
COc1ccc(Nc2nccc(-c3scnc3-c3cccc(NC(=O)c4c(F)cccc4F)c3)n2)cc1N1CCN(C)CC1 | < 100 nM
CN(C)CCOc1ccc(Nc2nccc(-c3sc(N)nc3-c3cccc(NC(=O)c4c(F)cccc4F)c3)n2)cc1Cl | < 100 nM
CN(C)CCOc1cccc(Nc2nccc(-c3sc(N)nc3-c3cccc(C(=O)Nc4c(F)cccc4F)c3)n2)c1 | < 100 nM
CN(C)c1nc(-c2cccc(NC(=O)c3c(F)cccc3F)c2)c(-c2ccnc(Nc3ccc(N4CCOCC4)c(Cl)c3)n2)s1 | < 100 nM
CN(C)c1nc(-c2cccc(NC(=O)c3c(F)cccc3F)c2)c(-c2ccnc(Nc3cccc(CN4CCCC4)c3)n2)s1 | < 100 nM
CN(C)CCOc1cccc(Nc2nccc(-c3sc(N)nc3-c3cccc(NC(=O)c4c(F)cccc4F)c3)n2)c1 | < 100 nM
CCc1nc(-c2cccc(NC(=O)c3c(F)cccc3F)c2)c(-c2ccnc(Nc3ccc(OCCN(C)C)c(Cl)c3)n2)s1 | < 100 nM
CN1CCN(c2nc(-c3cccc(NC(=O)c4c(F)cccc4F)c3)c(-c3ccnc(Nc4cccc(CN5CCCC5)c4)n3)s2)CC1 | < 100 nM
Cc1nc(-c2cccc(NC(=O)c3c(F)cccc3F)c2)c(-c2ccnc(Nc3ccc(OCCN4CCCC4)c(Cl)c3)n2)s1 | < 100 nM
